Twelve molecules from US20260226048A1, “MULTI-CYCLIC IRAK AND FLT3 INHIBITING COMPOUNDS AND USES THEREOF” (CHILDREN'S HOSPITAL MEDICAL CENTER, priority 2023, published 2026) can be followed below.

Broadly, the IC50 is the point on the concentration scale where inhibition reaches its midpoint.

One assay addresses T1, IRAK1 (Homo sapiens, UniProt P51617).
T1 construct: purchased Reaction Biology (RBC HotSpot)
Put plainly: RBC HotSpot Kinase Assay, IRAK1. In kind it is biochemical. The conditions noted are these: isolated kinase enzyme, 33P-ATP, P81 filter-binding. In outline: (§1)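 Reactions ran in 20 mM Hepes (pH 7.5) containing 10 mM MgCl2, 1 mM EGTA, 0.1 mM Na3VO4, 2 mM DTT, 0.02 mg/ml BSA, 0.01% Brij35 and 1% DMSO, plus required cofactors. Functional activity readout on the expressible enzyme form, sometimes C-terminally truncated or lacking receptor regulatory regions.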

Assay [1] deals with NF-κB-inducible SEAP reporter in THP-1-Blue NF-κB cells. Nature of the assay: NF-kB SEAP reporter assay in THP-1-Blue NF-κB cells. In kind it is cell-based. The conditions noted are these: 24 hours. How it is done: THP-1-Blue NF-κB cells (InvivoGen) carrying a stable integrated NF-κB-inducible secreted embryonic alkaline phosphatase (SEAP) reporter construct were plated at a concentration of 1×10^5 cells per well. The cells were stimulated with Pam3CSK4 (1 ng/mL) or hIL1B (1 ng/mL). After 10-20 minutes, the cells were then treated with vehicle (DMSO) or serial dilutions of the test compounds (10 doses tested for each test compound, with a 1:10 dilution series starting at 1 μM or 3 μM) with a final volume of 200 μL for 24 hours at 37° C. After 24 hours, the cells were centrifuged and 20 μL supernatant was incubated with 180 μL QUANTI-Blue reagent at 37° C. for 30-60 minutes. The levels of NF-κB-induced was measured in a microplate reader at 620 nm.

The next assay has as its system MOLM14 D835Y cells. Nature of the assay: MOLM14 D835Y cell viability assay (Cell Titer Glo). In kind it is cell-based. The conditions noted are these: Homo sapiens, MOLM-14, 48 h, cell viability, Cell Titer Glo, 48 hours; read-out: MOLM14 D835Y IC50. In outline:
(§2)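 Luminescent ATP read-out (CellTiter-Glo, 15 min room temperature) taken 48 h after compound addition. Cells were MOLM14 carrying FLT3 D835Y or F691L mutations, plated at 1000 cells per well.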

Another assay addresses T2, IRAK4 (Homo sapiens, UniProt Q9NWZ3).
T2 sequence (Q9NWZ3 1-460): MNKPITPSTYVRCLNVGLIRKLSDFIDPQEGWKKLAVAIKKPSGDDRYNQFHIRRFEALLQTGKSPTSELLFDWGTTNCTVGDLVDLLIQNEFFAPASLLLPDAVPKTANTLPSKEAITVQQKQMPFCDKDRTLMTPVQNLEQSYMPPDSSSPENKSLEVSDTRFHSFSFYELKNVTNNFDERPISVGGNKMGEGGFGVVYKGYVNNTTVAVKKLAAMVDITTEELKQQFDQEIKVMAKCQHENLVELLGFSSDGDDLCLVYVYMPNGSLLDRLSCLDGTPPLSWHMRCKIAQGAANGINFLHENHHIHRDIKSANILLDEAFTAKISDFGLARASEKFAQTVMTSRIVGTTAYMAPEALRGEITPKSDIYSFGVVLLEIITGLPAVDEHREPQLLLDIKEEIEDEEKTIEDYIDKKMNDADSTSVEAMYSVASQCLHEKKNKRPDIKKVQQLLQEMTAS
Nature of the assay: RBC HotSpot Kinase Assay, IRAK4. In kind it is biochemical. The conditions noted are these: isolated kinase enzyme, 33P-ATP, P81 filter-binding. Also on record: purchased Reaction Biology (RBC HotSpot). A digest of the protocol: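 Radiometric filter-binding activity assay with isolated recombinant kinase (construct may be truncated or catalytic domain only) in 20 mM Hepes pH 7.5, 10 mM MgCl2, 1 mM EGTA, 2 mM DTT, 1% DMSO. Compound preincubated 20 min with kinase/substrate; reaction started with 33P-ATP, run 2 h at room temperature.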

In a further assay the target is T3, FLT3 (Homo sapiens, UniProt P36888).
T3 sequence (P36888 27-993): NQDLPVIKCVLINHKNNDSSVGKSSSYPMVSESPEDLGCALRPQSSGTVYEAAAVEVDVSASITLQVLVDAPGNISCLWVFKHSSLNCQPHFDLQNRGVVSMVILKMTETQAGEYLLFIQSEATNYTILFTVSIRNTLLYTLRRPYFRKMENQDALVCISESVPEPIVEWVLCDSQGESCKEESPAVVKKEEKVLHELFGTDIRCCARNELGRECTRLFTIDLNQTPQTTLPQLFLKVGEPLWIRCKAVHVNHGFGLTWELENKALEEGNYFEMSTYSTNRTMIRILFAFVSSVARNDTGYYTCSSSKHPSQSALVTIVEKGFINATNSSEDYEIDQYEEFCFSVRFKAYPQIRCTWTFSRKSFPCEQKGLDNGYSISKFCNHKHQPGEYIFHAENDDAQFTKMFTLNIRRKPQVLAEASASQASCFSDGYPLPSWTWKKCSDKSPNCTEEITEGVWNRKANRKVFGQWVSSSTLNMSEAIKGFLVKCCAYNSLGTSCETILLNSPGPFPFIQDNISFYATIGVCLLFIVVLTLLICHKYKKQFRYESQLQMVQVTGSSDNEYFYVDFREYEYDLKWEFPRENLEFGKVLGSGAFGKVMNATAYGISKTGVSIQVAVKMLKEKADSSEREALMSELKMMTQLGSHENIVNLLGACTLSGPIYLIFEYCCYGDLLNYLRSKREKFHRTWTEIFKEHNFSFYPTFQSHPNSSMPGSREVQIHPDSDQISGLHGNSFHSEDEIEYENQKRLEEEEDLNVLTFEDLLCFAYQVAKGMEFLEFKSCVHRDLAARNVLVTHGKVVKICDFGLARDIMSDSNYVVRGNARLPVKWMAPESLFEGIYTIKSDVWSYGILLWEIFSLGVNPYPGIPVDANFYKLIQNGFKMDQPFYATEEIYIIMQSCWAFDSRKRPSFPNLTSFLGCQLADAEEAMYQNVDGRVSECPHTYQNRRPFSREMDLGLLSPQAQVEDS
Put plainly: RBC HotSpot Kinase Assay, FLT3. In kind it is biochemical. Also on record: purchased Reaction Biology (RBC HotSpot). The conditions noted are these: isolated kinase enzyme, 33P-ATP, P81 filter-binding. In outline:
as §1

In the next assay the test system is MOLM14 F691L cells. Put plainly: MOLM14 F691L cell viability assay (Cell Titer Glo). In kind it is cell-based. The conditions noted are these: Homo sapiens, MOLM-14; cell viability, Cell Titer Glo, 48 hours; read-out: MOLM14 F691L IC50. A digest of the protocol: as §2
The mark [2] stands for this setting: THP-1-Blue NF-κB cells stimulated with Pam3CSK4 (1 ng/mL), read-out: NF-κB Pam3SCK4 IC50.
The mark [3] stands for this setting: THP-1-Blue NF-κB cells stimulated with hIL1B (1 ng/mL), read-out: NF-κB IL1B IC50.

Where two headings read alike, the source gives them in different places. Some results are limits rather than exact numbers.

T1 sequence (P51617 whole entry): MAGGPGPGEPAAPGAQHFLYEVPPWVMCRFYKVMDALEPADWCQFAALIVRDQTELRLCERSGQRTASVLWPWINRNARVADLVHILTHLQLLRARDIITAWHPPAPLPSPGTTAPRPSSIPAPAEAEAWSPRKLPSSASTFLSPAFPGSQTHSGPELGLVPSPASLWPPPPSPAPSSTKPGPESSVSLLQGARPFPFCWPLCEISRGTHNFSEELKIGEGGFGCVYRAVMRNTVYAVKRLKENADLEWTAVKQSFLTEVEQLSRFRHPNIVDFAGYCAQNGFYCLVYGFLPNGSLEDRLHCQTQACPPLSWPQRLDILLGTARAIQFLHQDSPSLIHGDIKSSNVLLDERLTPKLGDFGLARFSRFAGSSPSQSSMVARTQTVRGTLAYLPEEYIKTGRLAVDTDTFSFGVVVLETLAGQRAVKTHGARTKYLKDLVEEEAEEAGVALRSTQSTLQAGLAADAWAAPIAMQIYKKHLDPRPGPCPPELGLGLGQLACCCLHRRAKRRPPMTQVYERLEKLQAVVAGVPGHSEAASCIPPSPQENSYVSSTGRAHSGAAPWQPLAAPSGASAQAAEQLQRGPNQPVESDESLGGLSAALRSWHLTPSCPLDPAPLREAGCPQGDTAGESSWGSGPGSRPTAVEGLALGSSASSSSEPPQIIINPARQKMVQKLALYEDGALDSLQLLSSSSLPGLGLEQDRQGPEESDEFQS

In the case of `C[C@@](O)(c1ccc2ncc(-c3ccnc(N[C@H]4CNCC[C@@H]4F)n3)n2c1)C(F)(F)F` (single isomer, unassigned) [Compound 27a], the IC50 on IRAK1 is 4 nM; in assay [1] (setting [2]), 55 nM; in assay [1] (setting [3]), 52 nM; in the assay with MOLM14 D835Y cells, 18 nM; on IRAK4, 0.7 nM; at FLT3, below 0.5 nM.
Consider `CC(O)(c1ccc2ncc(-c3nc(N[C@@H]4CCCNC4)ncc3F)n2c1)C(F)(F)F` (single isomer, unassigned) [Compound 37a], for which the IC50 was 2 nM on IRAK1; 70 nM in assay [1] (setting [2]); 58 nM in assay [1] (setting [3]); 32 nM in the assay with MOLM14 D835Y cells; 2 nM on IRAK4; below 0.5 nM at FLT3.
As for `COc1cnc(N[C@@H]2CCCNC2)nc1-c1cnc2cc(OC)c(C3CC3)nn12` [Compound 105a, (R)-4-(6-cyclopropyl-7-methoxyimidazo[1,2-b]pyridazin-3-yl)-5-methoxy-N-(piperidin-3-yl)pyrimidin-2-amine], the IC50 on IRAK1 is above 10000 nM; in the assay with MOLM14 D835Y cells, 711 nM; with MOLM14 F691L cells, 6340 nM; at IRAK4, 259 nM; at FLT3 it was 33 nM.
In the same order, the values of `COc1cc2ncc(-c3nc(N[C@H]4CNC[C@@H]4F)ncc3F)n2nc1N1CCCC1=O` [Compound 107a, 1-(3-(5-fluoro-2-(((3S,4S)-4-fluoropyrrolidin-3-yl)amino)pyrimidin-4-yl)-7-methoxyimidazo[1,2-b]pyridazin-6-yl)pyrrolidin-2-one] are 102 nM, 80 nM, 1130 nM, 20 nM and 0.6 nM.
In the same order, the values of `COc1cc2ncc(-c3nc(N[C@H]4CNCC[C@@H]4F)ncc3F)n2nc1N1CCCC1=O` [Compound 108a, 1-(3-(5-fluoro-2-(((3S,4S)-4-fluoropiperidin-3-yl)amino)pyrimidin-4-yl)-7-methoxyimidazo[1,2-b]pyridazin-6-yl)pyrrolidin-2-one] are 241 nM, 80 nM, 798 nM, 57 nM and 2 nM.
As for `COc1cc2ncc(-c3ccnc(N[C@H]4CNCC[C@@H]4F)n3)n2nc1C1CCO1` (stereo partly drawn) [Compound 109a, N-((3S,4S)-4-fluoropiperidin-3-yl)-4-(7-methoxy-6-(oxetan-2-yl)imidazo[1,2-b]pyridazin-3-yl)pyrimidin-2-amine], the 50% inhibitory concentration (IC50) turned out to be 239 nM on IRAK1; 28 nM in the assay on MOLM14 D835Y cells; 318 nM in the assay on MOLM14 F691L cells; 4 nM on IRAK4; 1 nM on FLT3.
For `COc1cc2ncc(-c3nc(N[C@@H]4CCCNC4)ncc3F)n2nc1N1CCCS1(=O)=O` [Compound 110a, (R)-2-(3-(5-fluoro-2-(piperidin-3-ylamino)pyrimidin-4-yl)-7-methoxyimidazo[1,2-b]pyridazin-6-yl)isothiazolidine 1,1-dioxide] the same measures were 23 nM, 18 nM, 113 nM, 20 nM and below 0.5 nM.
In the same order, the values of `Fc1cnc(N[C@H]2CNCC[C@@H]2F)nc1-c1cnc2cnc(C3COC3)cn12` [Compound 117a, 5-fluoro-N-((3S,4S)-4-fluoropiperidin-3-yl)-4-(6-(oxetan-3-yl)imidazo[1,2-a]pyrazin-3-yl)pyrimidin-2-amine] are 397 nM, 159 nM, 1590 nM, 45 nM and 3 nM.
For `Fc1cnc(N[C@@H]2CCCNC2)nc1-c1cnc2cnc(C3COC3)cn12` [Compound 118a, (R)-5-fluoro-4-(6-(oxetan-3-yl)imidazo[1,2-a]pyrazin-3-yl)-N-(piperidin-3-yl)pyrimidin-2-amine] the same measures were 732 nM, 179 nM, 3180 nM, 155 nM and 7 nM.
As to `COc1cc2ncc(-c3nc(N[C@H]4CNC[C@@H]4F)ncc3F)n2nc1N1CCS(=O)(=O)CC1` [Compound 123a, 4-(3-(5-fluoro-2-(((3S,4S)-4-fluoropyrrolidin-3-yl)amino)pyrimidin-4-yl)-7-methoxyimidazo[1,2-b]pyridazin-6-yl)thiomorpholine 1,1-dioxide], the half-maximal inhibitory concentration (IC50) is 43 nM on IRAK1; 63 nM with MOLM14 D835Y cells; 1000 nM with MOLM14 F691L cells; 5 nM at IRAK4; below 0.5 nM at FLT3.
In the same order, the values of `COc1cc2ncc(-c3nc(N[C@@H]4CCCNC4)ncc3F)n2nc1N1CCS(=O)(=O)CC1` [Compound 124a, (R)-4-(3-(5-fluoro-2-(piperidin-3-ylamino)pyrimidin-4-yl)-7-methoxyimidazo[1,2-b]pyridazin-6-yl)thiomorpholine 1,1-dioxide] are 123 nM, 90 nM, 1130 nM, 138 nM and 2 nM.
Turning to `COc1cc2ncc(-c3ccnc(N[C@H]4CNCC[C@@H]4F)n3)n2nc1[C@H]1C[C@@H](O)C1` [Compound 127a, (Cis)-3-(3-(2-(((3S,4S)-4-fluoropiperidin-3-yl)amino)pyrimidin-4-yl)-7-methoxyimidazo[1,2-b]pyridazin-6-yl)cyclobutan-1-ol], the half-inhibitory concentration (IC50) is 20 nM at IRAK1; 8 nM in the assay on MOLM14 D835Y cells; 113 nM in the assay on MOLM14 F691L cells; below 0.5 nM on IRAK4; below 0.5 nM at FLT3.
